# In patent EP1285918A1, “C7 Ester substituted taxanes as antitumor agents” (Florida State University Research Foundation, Inc., priority 2001, dated 2003):
# Read-outs that look alike come from different tables or passages of the source.
# Assays:
# [1] = test system: DU 145 Human Prostate Carcinoma Xenografts; settings: DU145, i.v. qd x 1 (mg/kg: Taxol 24, 1351 107.6, 1393 72.6, 1401 107.6, 1418 107.6, 1424 195.1)
# Procedure: (§1) Other antitumor compounds were similarly formulated. […] The dosing volume was 0.3 ml per 20 g mouse.
# Male NCr-nude mice (implanted subcutaneously with 1 mm^3 DU145 prostate carcinoma fragments in the flank) were sorted into treatment groups of five mice each. […] Dosing was initiated on Day 1. The antitumor compounds were given i.v. at an estimated maximum tolerated dose (MTD) appropriate for each agent on a qd x 1 schedule (single administration of compound). […] The vehicle was administered i.v. to control mice in Group 1 on the qd x 1 schedule. The study was terminated on Day 91. Treatment groups are detailed in Table 5.
# (§2) The mean days of survival is the number of days after which a neoplasm reached a size of 1.5 g and the animal was euthanized. A complete response is obtained if the tumor is not palpable at the end of the study. A partial response is obtained if the tumor shrinks to a size smaller than its size on Day 1 of the study. […]
# [2] = test system: A375 Human Melanoma Xenografts; settings: A375, i.v. qd x 1 (mg/kg: Taxol 24, 1351 107.6, 1393 72.6, 1401 107.6, 1418 107.6, 1424 195.1, Taxotere 70)
# Procedure: as §1
# Female NCr-nude mice (implanted subcutaneously with 1 mm^3 A375 melanoma in the flank) were sorted into treatment groups of six mice each, except for the Taxotere group having seven mice each. […] Dosing was initiated on Day 1. The antitumor compounds were given i.v. at an estimated maximum tolerated dose (MTD) appropriate for each agent on a qd x 1 schedule (single administration of compound). […] Taxotere was given i.v. on a qd x 1 schedule at a dose of 70 mg/kg. The vehicle was administered i.v. to control mice in Group 1 on the qd x 1 schedule. Treatment groups are detailed in Table 9. The study was terminated on Day 60.
# as §2, with “The results are summarized in Table 10 and include mean days of survival (MDS), number of toxic deaths, number of survivors, number of complete or partial responses, and number with stable disease. The” for “The”, “tumor” for “neoplasm”, “2.0” for “1.5”
# [3] = test system: Panc-1 Human Pancreatic Carcinoma Xenografts; settings: i.v. qd x 1 at estimated MTD; 6 mice/group; study end Day 63
# Procedure: (§3) Other antitumor compounds were similarly formulated. […] The dosing volume was 0.3 mL per 20 g mouse.
# Female NCr-nude mice (6-8 weeks of age, implanted subcutaneously with 1 mm^3 Panc-1 pancreatic carcinoma fragments in the flank) were sorted into treatment groups of six mice each. […] Dosing was initiated on Day 1. The antitumor compounds were given i.v. at an estimated maximum tolerated dose (MTD) appropriate for each agent on a qd x 1 schedule (single administration of compound). […] Taxotere was given i.v. at a dose of 70 mg/kg on a qd x 1 schedule. The vehicle was given i.v. to control mice in Group 1 in each test on Day 1 (qd x 1) schedule. Treatment groups are detailed in Table 12. The study was terminated on Day 63.
# The mean days of survival is the number of days after which a neoplasm reached a size of 1.5 g and the animal was euthanized. A complete response is obtained if the tumor is not palpable at the end of the study. A partial response is obtained if the tumor shrinks to a size smaller than its size on Day 1 of the study.
# [4] = test system: VM46 Human Colon Carcinoma Xenografts; settings: 6 mice/group
# Procedure: as §3
# Female NCr-nude mice (6-8 weeks of age, implanted subcutaneously with 1 mm^3 VM46 colon carcinoma fragments in the flank) were sorted into treatment groups of six mice each. […] Dosing was initiated on Day 1. The antitumor compounds were given i.v. at an estimated maximum tolerated dose (MTD) appropriate for each agent on a qd x 1 schedule (single administration of compound). […] Taxotere was given i.v. at a dose of 70 mg/kg on a qd x 1 schedule. The vehicle was given i.v. to control mice in Group 1 in each test on Day 1 (qd x 1) schedule. Treatment groups are detailed in Table 13. The VM46 study ended on Day 64.
# as §2, with “The results are summarized in table 14 and include mean days of survival (MDS), number of toxic deaths, number of survivors, number of complete or partial responses, and number with stable disease. The” for “The”
# HCT116 = assay: In Vitro cytotoxicity measured by the cell colony formation assay; assay type: cell-based; settings: Homo sapiens, HCT-116; 72 h drug incubation, colonies counted after 7 days; concentration producing 50% inhibition of colony formation; read-out: IN VITRO ID 50 (nm) HCT116
# Procedure: In Vitro cytotoxicity measured by the cell colony formation assay
# Four hundred cells (HCT116) were plated in 60 mm Petri dishes containing 2.7 mL of medium (modified McCoy's 5a medium containing 10% fetal bovine serum and 100 units/mL penicillin and […] streptomycin). The cells were incubated in a CO2 incubator at 37 °C for 5 h for attachment to the bottom of Petri dishes. The compounds identified in Example 2 were made up fresh in medium at ten times the final concentration, and then 0.3 mL of this stock solution was added to the 2.7 mL of medium in the dish. The cells were then incubated with drugs for 72 h at 37 ° C. At the end of incubation the drug-containing media were decanted, the dishes were rinsed with 4 mL of Hank's Balance Salt Solution (HBSS), 5 mL of fresh medium was added, and the dishes were returned to the incubator for colony formation. The cell colonies were counted using a colony counter after incubation for 7 days. Cell survival was calculated and the values of ID50 (the drug concentration producing 50% inhibition of colony formation) were determined for each tested compound.
# [5] = tumor score 1 to 10, group mean
# [6] = 195.1 mg/kg i.v. qd x 1, study end Day 64
structure (smiles),measurement,setting,value
CCC(=O)O[C@H]1C[C@H]2OC[C@@]2(OC(C)=O)[C@H]2[C@H](OC(=O)c3ccccc3)[C@]3(O)C[C@H](OC(=O)[C@H](O)[C@@H](NC(=O)OC(C)(C)C)c4ccsc4)C(C)=C([C@@H](O)C(=O)[C@]12C)C3(C)C [Compound 1424],MDS (n),"[1]; 5 mice/group, 1.5 g cut-off, Day 91",76.0 ± 5.4 (4) days
same,Complete Response,"[1]; 5 mice/group, Day 91",0
same,Partial Response,"[1]; 5 mice/group, Day 91",1
same,Stable Disease,"[1]; 5 mice/group, Day 91",0
same,Survivors,"[1]; 5 mice/group, Day 91",1
same,Toxic Deaths,"[1]; 5 mice/group, Day 91",0
same,Mean Score,[1]; [5],3.6 ± 1.1
same,MDS (n),"[2]; 2.0 g cut-off, Day 60",30.7 ± 1.1 (2) days
same,Complete Response,[2]; Day 60,0
same,Partial Response,[2]; Day 60,0
same,Stable Disease,[2]; Day 60,0
same,Survivors,[2]; Day 60,0
same,Mean Score,[2]; [5],1 ± 0.6
same,Complete Response,[3],0
same,Mean Score,[3],0 ± 0
same,Partial Response,[3],0
same,Stable Disease,[3],0
same,Survivors,[3],0
same,Toxic Deaths,[3],6
same,Complete Response,[4]; [6],0
same,Mean Score,[4]; [6],0.8 ± 0.4
same,Partial Response,[4]; [6],0
same,Stable Disease,[4]; [6],0
same,Survivors,[4]; [6],0
same,Toxic Deaths,[4]; [6],3
same,MDS (n),"[4]; 195.1 mg/kg i.v. qd x 1, study end Day 64, days until tumor reached 1.5 g",45.4 ± 8.1 (3) days
same,Toxic Deaths,"[4]; VM46, i.v. qd x 1 at estimated MTD",three
CCC(=O)O[C@H]1C[C@H]2OC[C@@]2(OC(C)=O)[C@H]2[C@H](OC(=O)c3ccccc3)[C@]3(O)C[C@H](OC(=O)[C@H](O)[C@@H](NC(=O)OC(C)(C)C)C(C)C)C(C)=C([C@@H](O)C(=O)[C@]12C)C3(C)C [Compound 1434],IC50,HCT116,< 10 nM
CCC(=O)O[C@H]1C[C@H]2OC[C@@]2(OC(C)=O)[C@H]2[C@H](OC(=O)c3ccccc3)[C@]3(O)C[C@H](OC(=O)[C@H](O)[C@@H](NC(=O)OC(C)(C)C)c4nccs4)C(C)=C([C@@H](O)C(=O)[C@]12C)C3(C)C [Compound 6363],IC50,HCT116,< 10 nM
CCC(=O)O[C@H]1C[C@H]2OC[C@@]2(OC(C)=O)[C@H]2[C@H](OC(=O)c3ccccc3)[C@]3(O)C[C@H](OC(=O)[C@H](O)[C@@H](NC(=O)OC(C)C)c4cccs4)C(C)=C([C@@H](O)C(=O)[C@]12C)C3(C)C [Compound 3082],IC50,HCT116,< 1 nM
CC(=O)O[C@@]12CO[C@@H]1C[C@H](OC(=O)C(C)C)[C@@]1(C)C(=O)[C@H](O)C3=C(C)[C@@H](OC(=O)[C@H](O)[C@@H](NC(=O)OC(C)(C)C)c4cccs4)C[C@@](O)([C@@H](OC(=O)c4ccccc4)[C@H]21)C3(C)C [Compound 6333],IC50,HCT116,< 1 nM
CCCC(=O)OC1CC2OCC2(OC(C)=O)C2C(OC(=O)c3ccccc3)C3(O)CC(OC(=O)C(O)C(NC(=O)OC(C)(C)C)c4ccco4)C(C)=C(C(O)C(=O)C12C)C3(C)C (centres unmarked) [Compound 4499],IC50,HCT116,< 1 nM
CCCC(=O)OC1CC2OCC2(OC(C)=O)C2C(OC(=O)c3ccccc3)C3(O)CC(OC(=O)C(O)C(C=C(C)C)NC(=O)OC(C)(C)C)C(C)=C(C(O)C(=O)C12C)C3(C)C (centres unmarked) [Compound 4406],IC50,HCT116,< 1 nM
CCC(=O)O[C@H]1C[C@H]2OC[C@@]2(OC(C)=O)[C@H]2[C@H](OC(=O)c3ccccc3)[C@]3(O)C[C@H](OC(=O)[C@H](O)[C@@H](NC(=O)OCC(C)C)c4cccs4)C(C)=C([C@@H](O)C(=O)[C@]12C)C3(C)C [Compound 3232],IC50,HCT116,< 1 nM
CCCC(=O)N[C@@H](c1ccco1)[C@@H](O)C(=O)O[C@H]1C[C@@]2(O)[C@@H](OC(=O)c3ccccc3)[C@@H]3[C@]4(OC(C)=O)CO[C@@H]4C[C@H](OC(=O)CC)[C@@]3(C)C(=O)[C@H](O)C(=C1C)C2(C)C [Compound 3171],IC50,HCT116,< 1 nM
CCC(=O)O[C@H]1C[C@H]2OC[C@@]2(OC(C)=O)[C@H]2[C@H](OC(=O)c3ccccc3)[C@]3(O)C[C@H](OC(=O)[C@H](O)[C@@H](NC(=O)c4ccco4)c4cccs4)C(C)=C([C@@H](O)C(=O)[C@]12C)C3(C)C [Compound 3069],IC50,HCT116,< 1 nM
C/C=C/C(=O)N[C@@H](c1ccoc1)[C@@H](O)C(=O)O[C@H]1C[C@@]2(O)[C@@H](OC(=O)c3ccccc3)[C@@H]3[C@]4(OC(C)=O)CO[C@@H]4C[C@H](OC(=O)CCC)[C@@]3(C)C(=O)[C@H](O)C(=C1C)C2(C)C [Compound 4939],IC50,HCT116,< 1 nM
CCC(=O)O[C@H]1C[C@H]2OC[C@@]2(OC(C)=O)[C@H]2[C@H](OC(=O)c3ccccc3)[C@]3(O)C[C@H](OC(=O)[C@H](O)[C@@H](NC(=O)OCC(C)C)C4CC4)C(C)=C([C@@H](O)C(=O)[C@]12C)C3(C)C [Compound 5191],IC50,HCT116,< 10 nM
CCC(=O)O[C@H]1C[C@H]2OC[C@@]2(OC(C)=O)[C@H]2[C@H](OC(=O)c3ccccc3)[C@]3(O)C[C@H](OC(=O)[C@H](O)[C@@H](NC(=O)OC(C)(C)CC)c4ccco4)C(C)=C([C@@H](O)C(=O)[C@]12C)C3(C)C [Compound 6212],IC50,HCT116,< 1 nM
CCC(=O)O[C@H]1C[C@H]2OC[C@@]2(OC(C)=O)[C@H]2[C@H](OC(=O)c3ccccc3)[C@]3(O)C[C@H](OC(=O)[C@H](O)[C@@H](NC(=O)OC(C)C)c4ccco4)C(C)=C([C@@H](O)C(=O)[C@]12C)C3(C)C [Compound 3444],IC50,HCT116,< 1 nM
CCC(=O)O[C@H]1C[C@H]2OC[C@@]2(OC(C)=O)[C@H]2[C@H](OC(=O)c3ccccc3)[C@]3(O)C[C@H](OC(=O)[C@H](O)[C@@H](NC(=O)c4ccco4)c4ccco4)C(C)=C([C@@H](O)C(=O)[C@]12C)C3(C)C [Compound 3629],IC50,HCT116,< 1 nM
